These results are taken from patent US20250074946A1, “USE OF SE-DR AFFINITY PEPTIDE IN PREPARING DRUG FOR TREATING RHEUMATIC DISEASE” (HEBEI FITNESS BIOTECHNOLOGY CO., LTD., priority 2021, published 2025).

As a reminder, the IC50 is the midpoint of a concentration-inhibition curve. A high value points to weaker potency.

Where two headings read alike, the source gives them in different places. Where no end group is shown, it is not given here. Where only a bound is given, the exact number is not on record here.

One series has as its system HLA-DR1. The experiment in a line: Determination of polypeptide affinity (fluorescence polarization competition). Format: binding, human. As to conditions: competition with 25 nM fluorescently-labeled polypeptide, 500 nM HLA-DR1, pH 7.4, 37° C. 30 min, fluorescence polarization, curve fitting. How it is done: The reaction system was at pH 7.4. Before use, protease inhibitor cocktail was added, and incubated at 37° C. for 30 min. The fluorescence polarization values were read. The mean value of the free labeled polypeptides was set as FP_free, and the value of the well without the competitive peptide was set as FP_no_comp. The relative binding rate of other wells was calculated according to the formula=(FP_sample−FP_free)/(FP_no_comp−FP_free). A curve was plotted using the relative binding rate and the concentration of the test polypeptide, and the IC50 value was calculated by curve fitting.
For orientation: Polarisation of emitted light reports the rotation of a fluorescent probe.

A further series relates to PBMC. The experiment in a line: PBMC stimulation test, IL-6 in supernatant by ELISA. Type of series: cell-based, human. The settings on record: PBMC 1×10^6 cell/ml, peptide 10 μg/ml, 5 days of culture. From the text: The SE-DR molecule is directly related to the pathogenesis of RA. It can present RA-related autoantigens in vivo, such as type II collagen (CII), heat shock protein 60 (Hsp60), cartilage glycoprotein (HCgp-39) and so on, and further activate autoreactive T cells, leading to the occurrence of rheumatoid arthritis. An important strategy for the treatment of RA is to use competitive inhibition to block the activation of autoreactive T cells by autoantigen peptides. […] Based on the above principles, we have designed and synthesized a series of altered peptide ligands, and screened for their affinity to SE-DR and for the activation ability on the peripheral blood T cells in RA patients. The specific steps and results are shown in Example 1 and Example 2.
3 mL ficoll was added to a 15 mL centrifuge tube, and 4 mL blood sample was then applied on the surface of ficoll. The tube was centrifuged at 400 g at 18-20° C. for 30-40 min. The upper layer of plasma was aspirated with a Pasteur pipette, and the PBMC layer (approximately 2 mL) was aspirated, and added to a 14 mL centrifuge tube previously filled with at least 3 volumes (6 mL) of PBS. The mixture was gently resuspended. The tube was centrifuged at 60-100 g for 10 min at 18-20° C. After centrifugation, the supernatant was removed with a Pasteur pipette, and the resulting cell mass was resuspended in 6-8 mL PBS and centrifuged at 18-20° C. for 10 min at 60-100 g to remove the supernatant. The cells were resuspended in an appropriate amount of 1640 complete medium and diluted to 1×10^6 cell/ml after cell counting. The diluted cell suspension was added to a 96-well plate. The positive control, allosteric peptide, was added to 100 μl cell culture to a final concentration of 10 μg/ml. The mixture was replenished to 200 μL with 1640 complete medium. After 5 days of culture, the supernatant was aspirated, centrifuged at 3000 rpm for 5 minutes, and the level of IL-6 in the supernatant was detected by ELISA.
For orientation: An ELISA detects its analyte on a solid surface through an enzyme-linked reagent.

Series [1] concerns CIA rats. The experiment in a line: CIA rat model: inflammation score AUC and peripheral blood T-cell subtypes (Example 3). Format: in vivo. The settings on record: 0.2 mmol. How it is done: Collagen-induced arthritis (CIA) model was established by intradermal injection of the emulsion formulated using type II bovine collagen (CII) together with incomplete Freund's adjuvant (IFA) into the tail head of a female Lewis rat. After the model establishment, the morphological changes of rats' four paws were examined every day. […] Except for the model group, the dosage of polypeptide was all set as 0.2 mmol. A control group was also set up, in which the drug was injected into the tail vein once every other day for […]. The area under the curve (AUC) of the inflammation score was used for the efficacy analysis from the day the rats were enrolled, once every other day, until the end of administration.

In series [2] the test system is immune system of healthy rats. The experiment in a line: Immune indicators of SD rats after one month of administration (Example 4). Format: in vivo, rat. As to conditions: once a day for 4 weeks, end of administration. How it is done: SD rats were used to investigate the effects of the SE-DR affinity peptides on the immune indicators of the rats after continuous administration for one month. […] At the end of administration, analysis was conducted on the serum anti-FNS007 antibodies, different types of serum immunoglobulins, the serum complement, the peripheral blood T lymphocyte and the serum cytokines.

Series [3] concerns immune system of healthy monkeys. The experiment in a line: Immune indicators of cynomolgus monkeys after one month of administration (Example 5). Format: in vivo, cynomolgus monkey. As to conditions: once a day for 4 weeks, end of administration. The source says:
Cynomolgus monkeys were used to investigate the effects of the SE-DR affinity peptide on the immune indicators of cynomolgus monkeys after continuous administration for one month. […] At the end of administration, the immune indicators, including the serum anti-FNS007 antibodies, the immunoglobulins of different serotypes, the serum complement, the peripheral blood T lymphocyte and the serum cytokines, were observed.

Series [4] relates to CIA mice infected with chronic hepatitis B. The experiment in a line: CIA mice infected with chronic hepatitis B (Example 8). Type of series: in vivo, mouse. How it is done: Establishment of chronic hepatitis B model in mice: DBA/1 mice were injected with Raav8-1. 3 HBV (1×10^12 vg/mL) via tail vein to establish HBV chronic hepatitis B model.
DBA/1 mice infected with chronic hepatitis B were used to establish CIA model with chronic hepatitis B infection. Methods: Two days after the mice were injected with Raav8-1.3 HBV (1×10^12 vg/mL) via tail vein, the emulsion of bovine C II and CFA (containing 100 μg collagen) was intradermally injected into the tail head of the mice for immunization. After 21 days, the mice were boosted once by intraperitoneal injection of the emulsion (containing 100 μg collagen) prepared by bovine C II and IFA. Thereafter, the morphological changes of the four paws of the mice were examined every day, and the mice were randomly assigned to the treatment group at inflammation score of 1. […] Another 10 mice with latent hepatitis B infection were not subjected to model establishment and set as the control group. PBS was administrated to both the model group and the control group. The mice in each group were given the corresponding drugs by tail intravenous injection at the volume of 10 ml/kg, once every other day, for 27 consecutive days. The mice were sacrificed on day 28 after administration. The inflammation scores of the four paws of the mice in each group were evaluated during the administration. The serological indicators for virus injection and liver function of the mice were detected on the day of booster immunization (22 days after tail vein injection) and at the time of sacrifice.

The test system of series [5] is CIA rats with latent tuberculosis infection. As to conditions: for Observation on the daily condition of rats: during administration; for Tuberculosis recurrence rate / Inflammation score and area under the time curve (AUC) / Culture of MTB from lungs and spleens of rats at sacrifice: peptides 0.2 mmol, adalimumab 1 mg/kg; for Tuberculosis recurrence rate: 21 days; for Inflammation score and area under the time curve (AUC): tail i.v. once every other day for 21 days; for Culture of MTB from lungs and spleens of rats at sacrifice: sacrifice on day 22.

The test system of series [6] is CIA rats. Format: in vivo, rat. The source says:
Female Lewis rats were used to establish CIA model. Methods: The rats were immunized by intradermal injection with the emulsion prepared by bovine C II and IFA at the tail head. After 7 days, the rats were boosted once with the same method. Thereafter, the morphological changes of the four paws of the rats were examined every day. […] Another 8 female Lewis rats were not subjected to model establishment and set as the control group. PBS was administrated to both the model group and the control group. […] The inflammation scores of the four paws of the rats in each group were evaluated during the administration (once every other day), and the area under the curve (AUC) of the inflammation score was calculated during the administration. During drug discontinuation, the inflammation scores of the four paws of the rats in each group were continuously evaluated (once every other day), and the rats were sacrificed on day 22 after drug discontinuation. HE staining was performed on the ankle joint for tissue injury evaluation. The specific scoring criteria were as follows: 0=normal synovial tissue; 1=synovial hyperplasia and inflammatory cell infiltration; 2=pannus formation and cartilage erosion; 3=destruction of most of the cartilage with subchondral bone erosion; 4=loss of joint integrity, ankylosis.

Setting [7] is: peripheral blood, […] after end of administration, flow cytometry.
[8] abbreviates: inflammation score AUC, FNS007 0.2 mmol, adalimumab 1 mg/kg, i.v. once every other day.

Consider AVKHNALKWA [APL52], for which the IC50 in the series on HLA-DR1 is greater than 100 µM.
Turning to RSFTAASSETGVG [APL14], the half-maximal inhibitory concentration (IC50) with HLA-DR1 was 6.54 µM.
With YAKQATLALA [APL7], the “IL-6 levels in the supernatant” value in the series on PBMC is 3.7 ng/mL. Also, the “Inflammation score and area under the time curve (AUC)” value (“Inflammation score and area” for short) in the series with CIA rats [1] (female Lewis CIA rats, tail vein once every other day for 15 days) was 60.48 ± 37.31. Besides, in the series with CIA rats [1] (setting [7]), the “Th1 (%)” value stood at 0.17 ± 0.10 %, the “Th2 (%)” value was 4.38 ± 0.81 %, the “Th17 (%)” value worked out at 0.92 ± 0.08% and the “Treg (%)” value turned out to be 5.22 ± 0.77 %. Besides, in series [2], the CD3% is reported as 36.69 ± 17^ %, the CD4% worked out at 18.29 ± 9.08%, the CD8% stood at 18.66 ± 8.61% and the IFN-γ was determined as 2.33 ± 0.29 pg/mL. In series [2], the IL-2 is on record as 3.06 ± 0.97 pg/mL, the IL-4 was 2.55 ± 1.30 pg/mL and the TNF-α is reported as 5.42 ± 1.23 pg/mL. In series [3], this substance yielded a CD3% of 61.83 ± 11.98%, a CD4% of 26.23 ± 7.31%, a CD8% of 23.72 ± 6.35% and an IFN-γ of 5.27 ± 0.59 pg/mL. In series [3], this substance yielded an IL-2 of 4.24 ± 0.34 pg/mL, an IL-4 of 2.04 ± 0.19 pg/mL and a TNF-α of 2.44 ± 0.22 pg/mL. Further, the ALT level in series [4] (at sacrifice, day 28) is on record as 48.53 ± 20.09 U/L. Besides, the “Observation on the daily condition of mice” value in series [4] (during administration) was “No abnormality”. For the same substance, in series [4] (peptides 50 μmol, Abatacept 100 μg, tail i.v. once every other day for 27 days), the “Inflammation score and area” value is on record as 96.19 ± 48.25. Moreover, in series [5], the “Observation on the daily condition of rats” value is listed as “No abnormality”; the Tuberculosis recurrence rate came out at 0%; the “Inflammation score and area” value was 55.93 ± 29.87; the “Culture of MTB from lungs and spleens of rats at sacrifice” value (from here on “Culture of MTB”) is on record as “Negative”.
For the substance adalimumab, the “inflammation score during drug discontinuation compared with that at the time of drug discontinuation” value in the series on CIA rats [6] (21 days of observation after stopping at day 21) is reported as “significantly increased”. Also, the “Pathological score during 21 days of drug discontinuation” value in the series on CIA rats [6] (HE staining of ankle joint, score 0-4) worked out at 2.69 ± 0.80. Further, the “AUC, during drug discontinuation (day 22-42)” value with CIA rats [6] (inflammation score AUC after stopping administration at day 21) stood at 96.85 ± 26.51. In addition, in the series on CIA rats [6] (setting [8]), the “AUC, during administration (day 1-21)” value amounted to 54.51 ± 22.72 and the “AUC, the first week during administration” value is 13.93 ± 4.81. The “AUC, during administration (day 1-21)” value with CIA rats [6] (inflammation score AUC, FNS007 0.2 mmol, adalimumab 1 mg/kg, i.v. once every other day, listed as adalimumab) was determined as 54.51. In the series with CIA rats [6] (rat, in vivo), the “Incidence of infection in rats” value was 10% and the “Observation on the daily state of rats” value is given as “Piloerection, epistaxis, prostration, reduced activity, etc”. Besides, in series [5], the “Observation on the daily condition of rats” value is “obvious toxicity symptoms such as piloerection and reduced activity”; the Tuberculosis recurrence rate is 60%; the “Inflammation score and area” value came out at 50.42 ± 27.13; the “Culture of MTB” value is 6/10 Positive. In series [5] (listed as adalimumab), the Tuberculosis recurrence rate came out at 60%; the “Inflammation score and area” value was “significantly reduce the inflammation score”; the “Culture of MTB” value was “positive in 6/10 rats”.
